Where two headings read alike, the source gives them in different places.
Experiments:
Type in all cases: in vivo
[1] = system: Amaranthus retroflexus (AMARE); experiment: Pre-emergence herbicidal action against AMARE; details: visual scoring after about 3 weeks vs untreated controls
How it was run: (§1)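 Application rates ran to 320 g/ha or lower, with several dosages tested on the same weeds. The compound, as wettable powder or emulsion concentrate, is sprayed pre-emergence onto soil over sown seeds; greenhouse growth follows, and effect is rated visually after roughly 3 weeks.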

Avena fatua (AVEFA) [2] = experiment: Pre-emergence herbicidal action against AVEFA; details: 320 g/ha, visual scoring after about 3 weeks vs untreated controls
How it was run: as §1

[3] = system: Verconica persica (VERPE); experiment: Post-emergence herbicidal action against VERPE
How it was run: (§2)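 Greenhouse plants sprayed at the one-leaf stage, 2–3 weeks after sowing, with WP or EC formulations plus 0.5% additive at 600 l/ha water. Activity rated visually after about 3 weeks versus untreated controls (100% = dead, 0% = like control), at 320 g/ha or lower.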

[4] = system: Matricaria inodora (MATIN); experiment: Pre-emergence herbicidal action against MATIN; details: dosage 320 g/ha
How it was run: as §1

Avena fatua (AVEFA) [5] = experiment: Post-emergence herbicidal action against AVEFA; details: visual rating about 3 weeks after treatment
How it was run: as §2

[6] = system: Alopecurus myosuroides (ALOMY); experiment: Pre-emergence herbicidal action against ALOMY; details: scored visually after about 3 weeks, 100% = plants have died
How it was run: as §1

[7] = system: Echinochloa crus-galli (ECHCG); experiment: Post-emergence herbicidal action against ECHCG
How it was run: as §2

Setaria viridis (SETVI) [8] = experiment: Pre-emergence herbicidal action against SETVI; details: dosage 320 g/ha
How it was run: as §1

[9] = system: Abutilon theophrasti (ABUTH); experiment: Post-emergence herbicidal action against ABUTH; details: visual rating about 3 weeks after treatment vs untreated controls (100% = plants have died, 0% = like control plants)
How it was run: as §2

Zea mays (ZEAMX) [10] = details: pre-emergence, crop plant compatibility, in comparison to untreated controls
How it was run: (§3)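 Crop injury rated visually in percent against untreated plants roughly 3 weeks after treatment (0% no effect, 100% plants dead). Compounds, as WP or EC with 0.5% additive in 600 l/ha water, were applied to the covering soil right after sowing; greenhouse growth. Suffixes a, b, c denote different dosages.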

Oryza sativa (ORYSA) [11] = details: pre-emergence, crop plant compatibility, in comparison to untreated controls
How it was run: as §3

Viola tricolor (VIOTR) [12] = experiment: Post-emergence herbicidal action against VIOTR; details: 320 g/ha
How it was run: as §2

[13] = system: Verconica persica (VERPE); experiment: Pre-emergence herbicidal action against VERPE; details: dosage 320 g/ha
How it was run: as §1

Lolium rigidum (LOLRI) [14] = experiment: Post-emergence herbicidal action against LOLRI; details: dosage 320 g/ha
How it was run: as §2

[15] = system: Alopecurus myosuroides (ALOMY); experiment: Post-emergence herbicidal action against ALOMY; details: visual rating about 3 weeks after treatment vs untreated controls (100% = plants have died, 0% = like control plants)
How it was run: as §2

[16] = system: Amaranthus retroflexus (AMARE); experiment: Post-emergence herbicidal action against AMARE
How it was run: as §2

[17] = system: Matricaria inodora (MATIN); experiment: Post-emergence herbicidal action against MATIN; details: dosage 320 g/ha
How it was run: as §2

[18] = system: Polygonum convolvulus (POLCO); experiment: Pre-emergence herbicidal action against POLCO; details: dosage 320 g/ha
How it was run: as §1

[19] = system: Polygonum convolvulus (POLCO); experiment: Post-emergence herbicidal action against POLCO
How it was run: as §2

Setaria viridis (SETVI) [20] = experiment: Post-emergence herbicidal action against SETVI; details: dosage 320 g/ha
How it was run: as §2

Oryza sativa (ORYSA) [21] = details: crop plant compatibility
How it was run: (§4)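 Test crops were treated 2 to 3 weeks after sowing, once they reached one leaf, by spraying compound in water with 0.5% additive at 600 l/ha. Visual scoring compared them with untreated controls roughly 3 weeks on, and appendices a, b and c denote different doses.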

Viola tricolor (VIOTR) [22] = experiment: Pre-emergence herbicidal action against VIOTR
How it was run: as §1

[23] = system: Pharbitis purpurea (PHBPU); experiment: Post-emergence herbicidal action against PHBPU
How it was run: as §2

Lolium rigidum (LOLRI) [24] = experiment: Pre-emergence herbicidal action against LOLRI; details: dosage 320 g/ha
How it was run: as §1

[25] = system: Triticum aestivum (TRZAS); details: crop plant compatibility, 20 g/ha, effect vs untreated controls
How it was run: as §4

Zea mays (ZEAMX) [26] = details: 20 g/ha, ZEAMX, effect in comparison to untreated controls
How it was run: as §4

[27] = system: Echinochloa crus-galli (ECHCG); experiment: Pre-emergence herbicidal action against ECHCG; details: dosage 320 g/ha
How it was run: as §1

[28] = system: Pharbitis purpurea (PHBPU); experiment: Pre-emergence herbicidal action against PHBPU; details: dosage 320 g/ha
How it was run: as §1

[29] = 80 g/ha, visual rating about 3 weeks after treatment vs untreated controls (100% = plants have died, 0% = like control plants)
[30] = 320 g/ha, visual rating about 3 weeks after treatment
[31] = 80 g/ha, effect in comparison to untreated controls

CSCCOC(=O)COc1nn(-c2ccccn2)c(-c2ccc(F)nc2)c1Br [Example I-95]
Pre-emergence action against AMARE in % ([1]; 80 g/ha): 90% | Pre-emergence action against AMARE in % ([1]; 320 g/ha): 100% | Pre-emergence action against AVEFA in % (Avena fatua (AVEFA) [2]): 80% | Post-emergence action against VERPE in % ([3]; 320 g/ha, VERPE): 80% | Post-emergence action against VERPE in % ([3]; dosage 80 g/ha): 80% | Pre-emergence action against MATIN in % [4]: 80% | Post-emergence action against AVEFA in % (Avena fatua (AVEFA) [5]; 80 g/ha): 80% | Post-emergence action against AVEFA in % (Avena fatua (AVEFA) [5]; 320 g/ha): 80% | Pre-emergence action against ALOMY ([6]; 320 g/ha): 80% | Post-emergence action against ECHCG in % ([7]; dosage 320 g/ha): 90% | Pre-emergence action against SETVI in % (Setaria viridis (SETVI) [8]): 100% | Post-emergence action against ABUTH in % ([9]; 80 g/ha): 80% | Post-emergence action against ABUTH in % ([9]; 320 g/ha): 80% | Pre-emergence action against ZEAMX in % (Zea mays (ZEAMX) [10]; 80 g/ha): 0% | Pre-emergence action against ZEAMX in % (Zea mays (ZEAMX) [10]; 320 g/ha): 0% | Pre-emergence action against ORYSA in % (Oryza sativa (ORYSA) [11]; 80 g/ha): 0% | Pre-emergence action against ORYSA in % (Oryza sativa (ORYSA) [11]; 320 g/ha): 0% | Post-emergence action against VIOTR in % (Viola tricolor (VIOTR) [12]): 80% | Pre-emergence action against VERPE in % [13]: 100% | Post-emergence action against LOLRI in % (Lolium rigidum (LOLRI) [14]): 80% | Post-emergence action against ALOMY in % ([15]; 320 g/ha): 100% | Post-emergence action against AMARE in % [16, 29]: 80% | Post-emergence action against AMARE in % [16, 30]: 90% | Post-emergence action against MATIN in % [17]: 80% | Pre-emergence action against POLCO in % [18]: 90% | Post-emergence action against POLCO in % ([19]; dosage 80 g/ha): 80% | Post-emergence action against POLCO in % ([19]; dosage 320 g/ha): 80% | Post-emergence action against SETVI in % (Setaria viridis (SETVI) [20]): 90% | Post-emergence action against ORYSA in % (Oryza sativa (ORYSA) [21]; [31]): 0% | Pre-emergence action against VIOTR in % (Viola tricolor (VIOTR) [22]; 320 g/ha, Viola tricolor): 100% | Pre-emergence action against VIOTR in % (Viola tricolor (VIOTR) [22]; dosage 80 g/ha): 100%

O=C(O)COc1nn(-c2ccccn2)c(-c2ccc(F)nc2)c1C(F)(F)F [Example I-99]
Pre-emergence action against AMARE in % ([1]; 320 g/ha): 90% | Pre-emergence action against AVEFA in % (Avena fatua (AVEFA) [2]): 90% | Post-emergence action against VERPE in % ([3]; dosage 80 g/ha): 80% | Pre-emergence action against MATIN in % [4]: 90% | Pre-emergence action against ALOMY ([6]; 80 g/ha): 80% | Pre-emergence action against ALOMY ([6]; 320 g/ha): 100% | Pre-emergence action against SETVI in % (Setaria viridis (SETVI) [8]): 90% | Pre-emergence action against ZEAMX in % (Zea mays (ZEAMX) [10]; 80 g/ha): 0% | Pre-emergence action against ORYSA in % (Oryza sativa (ORYSA) [11]; 80 g/ha): 0% | Pre-emergence action against VERPE in % [13]: 90% | Post-emergence action against ALOMY in % ([15]; 80 g/ha): 90% | Post-emergence action against AMARE in % [16, 29]: 80% | Pre-emergence action against POLCO in % [18]: 90% | Post-emergence action against PHBPU in % ([23]; dosage 80 g/ha): 80% | Post-emergence action against POLCO in % ([19]; dosage 80 g/ha): 90% | Pre-emergence action against LOLRI in % (Lolium rigidum (LOLRI) [24]): 100% | Post-emergence action against TRZAS in % [25]: 20% | Post-emergence action against ZEAMX in % (crop plant compatibility) (Zea mays (ZEAMX) [26]): 0% | Post-emergence action against ORYSA in % (Oryza sativa (ORYSA) [21]; 20 g/ha, effect vs untreated controls): 0% | Post-emergence action against ORYSA in % (Oryza sativa (ORYSA) [21]; [31]): 0% | Pre-emergence action against VIOTR in % (Viola tricolor (VIOTR) [22]; 320 g/ha, Viola tricolor): 90%

CCOC(=O)CSc1nn(-c2ccccn2)c(-c2cncc(F)c2)c1C1CC1 [Example I-156]
Pre-emergence action against AMARE in % ([1]; 320 g/ha): 100% | Post-emergence action against VERPE in % ([3]; 320 g/ha, VERPE): 80% | Pre-emergence action against MATIN in % [4]: 80% | Post-emergence action against AVEFA in % (Avena fatua (AVEFA) [5]; 320 g/ha): 90% | Post-emergence action against ECHCG in % ([7]; dosage 80 g/ha): 80% | Post-emergence action against ECHCG in % ([7]; dosage 320 g/ha): 80% | Pre-emergence action against SETVI in % (Setaria viridis (SETVI) [8]): 90% | Pre-emergence action against ZEAMX in % (Zea mays (ZEAMX) [10]; 80 g/ha): 0% | Pre-emergence action against ZEAMX in % (Zea mays (ZEAMX) [10]; 320 g/ha): 20% | Pre-emergence action against ORYSA in % (Oryza sativa (ORYSA) [11]; 80 g/ha): 0% | Post-emergence action against ALOMY in % ([15]; 320 g/ha): 80% | Pre-emergence action against ECHCG in % [27]: 90% | Pre-emergence action against PHBPU in % [28]: 80% | Post-emergence action against AMARE in % [16, 29]: 80% | Post-emergence action against AMARE in % [16, 30]: 90% | Post-emergence action against MATIN in % [17]: 80% | Post-emergence action against PHBPU in % ([23]; dosage 320 g/ha): 90% | Post-emergence action against POLCO in % ([19]; dosage 320 g/ha): 80% | Post-emergence action against SETVI in % (Setaria viridis (SETVI) [20]): 80% | Pre-emergence action against LOLRI in % (Lolium rigidum (LOLRI) [24]): 80% | Post-emergence action against ORYSA in % (Oryza sativa (ORYSA) [21]; [31]): 0% | Pre-emergence action against VIOTR in % (Viola tricolor (VIOTR) [22]; 320 g/ha, Viola tricolor): 90% | Pre-emergence action against VIOTR in % (Viola tricolor (VIOTR) [22]; dosage 80 g/ha): 80%
